In US20120040906A1, “PROTEIN TARGETS IN DISEASE” (NATIONAL UNIVERSITY OF IRELAND, GALWAY, priority 2009, published 2012):

Key:
H9c2 cells = experiment: RT-PCR for induction of Grp78/BiP; format: cell-based; settings: 1 μM Tg, 1 μg/ml Tm for 24 hr, three independent experiments
Protocol: (§1) Expression profiling of microRNAs during the conditions of Endoplasmic Reticulum (ER) stress in cardiomyocytes was performed. ER stress was induced by treatment with either thapsigargin, an inhibitor of the Sacroplasmic/Endoplasmic Reticulum Ca2+ATPase (SERCA) pump or tunicamycin (an inhibitor of N-linked glycosylation). RNA was isolated from three independent experiments where H9c2 cells were treated with thapsigargin (Tg) or tunicamycin (Tm) for 24 hours. RNAs from Tg and Tm treated cells were checked for induction of key ER resident chaperone Grp78/BiP by RT-PCR. Grp78/BiP is a central regulator of ER homeostasis due to its multiple functional roles in protein folding, ER calcium binding, and controlling of the activation of transmembrane ER stress sensors. […] Total RNA was isolated from H9c2 cells treated with 1 μM Tg, 1 μg/ml Tm for 24 hr and the expression levels of the indicated genes were analysed by RT-PCR.

H9c2 cardiomyocytes [1] = experiment: microarray analysis of microRNA expression during ER stress; format: cell-based, Rat; settings: Tg 1 μM or Tm 1 μg/ml, 24 hours, untreated control = 1.000
Protocol: as §1
Next equal amounts of RNAs from each experiment were pooled and used for microarray analysis to minimize experimental variations. The experimental outline for the microarray analysis is illustrated in FIG. 2. The chips were spotted with 350 mature microRNAs of Rat as per Sanger miRBase database (Release 11.0). Each microRNA was spotted on the array nine times and for each RNA sample two chips were used. There were 16 sets of control probes on each array. There were greater than 10 positive controls (spike-in controls & 5S). There were greater than 10 negative controls (mismatch control). A 20-mer control RNA is spiked into each sample followed by labeling and hybridization. The control RNA had been computationally and experimentally verified not to cross-hybridize with the probes of any known microRNA transcript. The background-subtracted signals were used for statistical tests and clustering analysis.
(§2) Control, Untreated; Tg, thapsigargin (1 μM) for 24 hours, Tm, tunicamycin (1 μg/ml) for 24 hours. mir-7a, mir-351 and mir-322 are shown in bold face.

H9c2 cardiomyocytes [2] = experiment: real-time RT-PCR confirmation of microRNA expression during ER stress; format: cell-based, Rat; settings: Tg 1 μM or Tm 1 μg/ml, 24 hours; for mir-7a expression, Real-time PCR (set I) / mir-18a expression, Real-time PCR (set I) / mir-20a expression, Real-time PCR (set I) / mir-24 expression, Real-time PCR (set I) / mir-25 expression, Real-time PCR (set I) / mir-93 expression, Real-time PCR (set I) / mir-98 expression, Real-time PCR (set I) / mir-103 expression, Real-time PCR (set I) / mir-106b expression, Real-time PCR (set I) / mir-107 expression, Real-time PCR (set I) / mir-133a expression, Real-time PCR (set I) / mir-133b expression, Real-time PCR (set I) / mir-206 expression, Real-time PCR (set I) / mir-322 expression, Real-time PCR (set I) / mir-351 expression, Real-time PCR (set I): untreated control = 1.000, set I; for mir-7a expression, Real-time PCR (set II) / mir-18a expression, Real-time PCR (set II) / mir-20a expression, Real-time PCR (set II) / mir-24 expression, Real-time PCR (set II) / mir-25 expression, Real-time PCR (set II) / mir-93 expression, Real-time PCR (set II) / mir-98 expression, Real-time PCR (set II) / mir-103 expression, Real-time PCR (set II) / mir-106b expression, Real-time PCR (set II) / mir-107 expression, Real-time PCR (set II) / mir-133a expression, Real-time PCR (set II) / mir-133b expression, Real-time PCR (set II) / mir-206 expression, Real-time PCR (set II) / mir-322 expression, Real-time PCR (set II) / mir-351 expression, Real-time PCR (set II): untreated control = 1.000, set II
From the text: Expression of muscle specific microRNAs; mir-206, mir-133a and mir-133b and several members of mir-17-92 oncogenic cluster were repressed during conditions of ER stress. Based on their differential expression profile during ER stress and their hitherto unexplored role in cardiovascular biology mir-7a, mir-351 and mir-322 were identified as primary microRNA targets in conditions of ER stress. In addition, the invention has been extended to the human ortholog, miR-125, of rat miR-351. Similarly, the invention extends to the human ortholog, miR-424, of rat miR-322. […], and hsa-miR-424 & rno-miR-322 are microRNAs having similar seed sequences in humans and rats respectively.
as §2

## C/C=C(/C)C(=O)O[C@H]1C(C)=C2[C@H]([C@@H]1OC(=O)CCCCCCC)[C@@](C)(OC(C)=O)C[C@H](OC(=O)CCC)[C@@]1(O)[C@H]2OC(=O)[C@@]1(C)O [Tg, thapsigargin]
H9c2 cells
  induction of ER resident chaperone Grp78/BiP by RT-PCR: induction of Grp78/BiP in all three experiments
H9c2 cardiomyocytes [1]
  mir-7a expression, Microarray Analysis: 1.341
  mir-18a expression, Microarray Analysis: 0.426
  mir-20a expression, Microarray Analysis: 0.770
  mir-24 expression, Microarray Analysis: 0.664
  mir-25 expression, Microarray Analysis: 0.633
  mir-93 expression, Microarray Analysis: 0.583
  mir-98 expression, Microarray Analysis: 3.822
  mir-103 expression, Microarray Analysis: 0.654
  mir-106b expression, Microarray Analysis: 0.638
  mir-107 expression, Microarray Analysis: 0.682
  mir-133a expression, Microarray Analysis: 0.595
  mir-133b expression, Microarray Analysis: 0.565
  mir-206 expression, Microarray Analysis: 0.683
  mir-322 expression, Microarray Analysis: 0.094
  mir-351 expression, Microarray Analysis: 0.141
H9c2 cardiomyocytes [2]
  mir-7a expression, Real-time PCR (set I): 1.540
  mir-18a expression, Real-time PCR (set I): 0.720
  mir-20a expression, Real-time PCR (set I): 0.930
  mir-24 expression, Real-time PCR (set I): 0.810
  mir-25 expression, Real-time PCR (set I): 0.790
  mir-93 expression, Real-time PCR (set I): 0.660
  mir-98 expression, Real-time PCR (set I): 1.470
  mir-103 expression, Real-time PCR (set I): 0.860
  mir-106b expression, Real-time PCR (set I): 0.820
  mir-107 expression, Real-time PCR (set I): 0.580
  mir-133a expression, Real-time PCR (set I): 0.720
  mir-133b expression, Real-time PCR (set I): 0.470
  mir-206 expression, Real-time PCR (set I): 0.540
  mir-322 expression, Real-time PCR (set I): 0.830
  mir-351 expression, Real-time PCR (set I): 0.210
  mir-7a expression, Real-time PCR (set II): 3.800
  mir-18a expression, Real-time PCR (set II): 0.700
  mir-20a expression, Real-time PCR (set II): 0.620
  mir-24 expression, Real-time PCR (set II): 0.870
  mir-25 expression, Real-time PCR (set II): 0.799
  mir-93 expression, Real-time PCR (set II): 0.530
  mir-98 expression, Real-time PCR (set II): 0.850
  mir-103 expression, Real-time PCR (set II): 0.590
  mir-106b expression, Real-time PCR (set II): 0.800
  mir-107 expression, Real-time PCR (set II): 0.800
  mir-133a expression, Real-time PCR (set II): 1.140
  mir-133b expression, Real-time PCR (set II): 0.680
  mir-206 expression, Real-time PCR (set II): 0.820
  mir-322 expression, Real-time PCR (set II): 0.690
  mir-351 expression, Real-time PCR (set II): 0.210

## tunicamycin [Tm]
H9c2 cells
  induction of ER resident chaperone Grp78/BiP by RT-PCR: induction of Grp78/BiP in all three experiments
H9c2 cardiomyocytes [1]
  mir-7a expression, Microarray Analysis: 2.458
  mir-18a expression, Microarray Analysis: 0.550
  mir-20a expression, Microarray Analysis: 0.791
  mir-24 expression, Microarray Analysis: 0.672
  mir-25 expression, Microarray Analysis: 0.771
  mir-93 expression, Microarray Analysis: 0.524
  mir-98 expression, Microarray Analysis: 4.921
  mir-103 expression, Microarray Analysis: 0.571
  mir-106b expression, Microarray Analysis: 0.672
  mir-107 expression, Microarray Analysis: 0.601
  mir-133a expression, Microarray Analysis: 0.690
  mir-133b expression, Microarray Analysis: 0.641
  mir-206 expression, Microarray Analysis: 0.607
  mir-322 expression, Microarray Analysis: 0.113
  mir-351 expression, Microarray Analysis: 0.179
H9c2 cardiomyocytes [2]
  mir-7a expression, Real-time PCR (set I): 1.140
  mir-18a expression, Real-time PCR (set I): 1.090
  mir-20a expression, Real-time PCR (set I): 1.340
  mir-24 expression, Real-time PCR (set I): 0.930
  mir-25 expression, Real-time PCR (set I): 0.906
  mir-93 expression, Real-time PCR (set I): 0.800
  mir-98 expression, Real-time PCR (set I): 1.480
  mir-103 expression, Real-time PCR (set I): 0.960
  mir-106b expression, Real-time PCR (set I): 1.060
  mir-107 expression, Real-time PCR (set I): 0.590
  mir-133a expression, Real-time PCR (set I): 0.750
  mir-133b expression, Real-time PCR (set I): 0.480
  mir-206 expression, Real-time PCR (set I): 0.570
  mir-322 expression, Real-time PCR (set I): 0.840
  mir-351 expression, Real-time PCR (set I): 0.290
  mir-7a expression, Real-time PCR (set II): 1.650
  mir-18a expression, Real-time PCR (set II): 0.640
  mir-20a expression, Real-time PCR (set II): 0.650
  mir-24 expression, Real-time PCR (set II): 0.760
  mir-25 expression, Real-time PCR (set II): 0.760
  mir-93 expression, Real-time PCR (set II): 0.550
  mir-98 expression, Real-time PCR (set II): 0.750
  mir-103 expression, Real-time PCR (set II): 0.500
  mir-106b expression, Real-time PCR (set II): 0.737
  mir-107 expression, Real-time PCR (set II): 0.630
  mir-133a expression, Real-time PCR (set II): 0.730
  mir-133b expression, Real-time PCR (set II): 0.510
  mir-206 expression, Real-time PCR (set II): 0.604
  mir-322 expression, Real-time PCR (set II): 0.610
  mir-351 expression, Real-time PCR (set II): 0.230
